In US7875638B2, “Synthesis of epothilones, intermediates thereto, analogues and uses thereof” (Sloan-Kettering Institute for Cancer Research, priority 2002, dated 2011):
≈ marks a conversion by molar mass, not a printed value. Where “and” joins values, the source holds several entries; their conditions need not be identical. Equal values may be shown once. Entries after “also recorded” stand apart in the source; their conditions may differ. Read-outs that look alike come from different tables or passages of the source.

What was measured:
[1] = Solubility in water; conditions: for solubility: water
[2] = test system: CCRF-CEM/Taxol; assay type: cell-based, human; conditions: for IC50: Homo sapiens, CCRF-CEM
[3] = Octanol-water partition (POW) number by HPLC; assay type: physicochemical; conditions: HPLC estimate, pH 7.4 buffer; read-out: Lipophilicity octanol/water partition (POW)
Protocol: Determination of partition of octanol-water (POW) number. An HPLC method is used to estimate octanol-water partition. An Agilent 1100 HPLC system is used with an eclipse XDB C18 column 4.6×250 mm with a mobile phase of 60% acetonitrile/40% 25 mM potassium phosphate buffer at pH 7.4 with a flow rate of 0.8 ml per min. and the eluent is monitored at 250 nm. The standards used are benzyl alcohol, acetophenone, benzophenone, naphthalene, diphenyl ether and dibenzyl with known POW of […] respectively. Sodium dichromate is used to evaluate time zero which is 2.5 min and the retention times for the standards are 3.9, 5.4, 10.6, 14, 18.7 and 19.8 min, respectively. The k value is calculated by the formula of k=(trt−t0)/t0. Linear regression of log k vs. log POW gives a straight line with r^2=0.966. This graph is used to evaluate the POW value of the epothilone analogs.

[4] = in vitro; conditions: mouse
Protocol: (§1) Stability of epothilones in mouse and in human liver S9 fraction. The stability study was carried out with a fully automated HPLC system which consisted of a Prospekt-2 (Spark Holland, Netherlands) sample preparation system and an Agilent 1100 HPLC system. Briefly, the Prospekt 2 picked up a C8 extraction cartridge and washed it with acetonitrile and water. The Agilent autosampler, set at 37° C., picked up 20 μl of the sample, loaded it onto the cartridge, washed it with water, then the Prospekt-2 diverted the mobile phase stream through the extraction cartridge onto the analytical column, Reliance Stable Bond C8 4×80 mm with guard column (MacMod, Chadds Ford, Pa.) and the eluent was monitored at 250 nm. […] Sample preparation involved the addition of equal volumes of plasma to PBS for a total volume of 300-400 μl, filtered, and the addition of 0.5-2 μl of the substrate (20 mM) to achieve about 30-50 mAU at 250 nm in the HPLC analysis. For pooled human liver microsome S9 fraction (Xeno Tech, Lenex, Kans.), 20 μl (400 μg) or S9 fraction was mixed with 280 μl of PBS then proceeded as above. The sampling period was controlled by the autosampler and peak area data were collected to compare the rate of disappearance of the parent compound.
(§2) Stability of epothilones in mouse and in human liver S9 fraction: The stability study was carried out with a fully automated HPLC system which consisted of a Prospekt-2 (Spark Holland, Netherlands) sample preparation system and an Agilent 1100 HPLC system. Briefly, the Prospekt 2 picked up a C8 extraction cartridge and washed it with acetonitrile and water. The Agilent autosampler, set at 37° C., picked up 20 μl of the sample, loaded it onto the cartridge, washed it with water, then the Prospekt-2 diverted the mobile phase stream through the extraction cartridge onto the analytical column, Reliance Stable Bond C8 4×80 mm with guard column (MacMod, Chadds Ford, Pa.) and the eluent was monitored at 250 nm. […] Sample preparation involves the addition of equal volumes of plasma to PBS for a total volume of 400 μl, filtered, and the addition of 0.5-2 μl of the substrate (20 mM) to achieve about 30-50 mAU at 250 nm in the HPLC analysis. For pooled human liver microsome S9 fraction (Xeno Tech, Lenex, Kans.), 20 μl (400 μg) or S9 fraction was mixed with 280 μl of PBS then proceeds as above. The sampling period was controlled by the autosampler and peak area data were collected to compare the rate of disappearance of the parent compound.

[5] = for Slower drug degradation in murine plasma as compared to dEpoB (1), factor: exposure to murine plasma
Protocol: as §1, §2

[6] = test system: CCRF-CEM; conditions: for Potency compared with EpoB (51): sensitive and resistant cell lines
Protocol: (§3) Cytotoxicity Assays. In preparation for in vitro cytotoxicity assays, cells were cultured at an initial density 2-5×10^4 cells per milliliter. […] For both methods, the absorbance of each well was measured with a microplate reader (Power Wave XS, Bio-Tek, Winooski, Vt.).
(§4) A typical experiment involves culturing cells (e.g., CCRF-CEM) at an initial density of 2-5×10^4 cells per ml. […] For cells that were grown in suspension (such as CCRF-CEM and its sublines), cytotoxicitiy is measured by using the 2,-3-bis(2-methoxy-4-nitro-5-sulfophenyl)-5 carboxanilide)-2H terazodium hydroxide (XTT)-microculture tetrazonium method in duplicate in 96-well microtiter plates. For both methods, the absorbance of each well is measured with a microplate reader (EL-340, Bio-Tek, Burlington, Vt.). Each run entails six or seven concentrations of the tested drugs. Dose-effect relationship data are analyzed with the median-effect plot.
(§5) Cytotoxicity Assays: In preparation for in vitro cytotoxicity assays, cells were cultured at an initial density 2-5×10^4 cells per milliliter. […] For both methods, the absorbance of each well was measured with a microplate reader (Power Wave XS, Bio-Tek, Winooski, Vt.).

[7] = test system: human xenografts in nude mice, such as MX-1; set-up: Relative therapuetic index at MTD: key to the marks not given beside the values; conditions: for Relative therapuetic index at MTD: graded at maximal tolerated dose
[8] = in vitro; conditions: human
Protocol: as §1, §2

[9] = preliminary metabolic degradation studies
[10] = test system: human mammary carcinoma MX-1 xenograft
[11] = test system: CCRF-CEM; conditions: human, CCRF-CEM leukemic cells, 72 h
Protocol: as §3, §4, §5

[12] = test system: human mammary carcinoma MX-1 xenograft; experiment: MX-1 xenograft in nude mice
[13] = test system: human colon carcinoma HCT-116 xenograft; experiment: HCT-116 xenograft in nude mice
[14] = test system: human T-cell lymphoblastic leukemia CCRF-CEM/Taxol xenograft; experiment: CCRF-CEM/Taxol xenograft in nude mice; assay type: in vivo
[15] = test system: human colon carcinoma HCT-116 xenograft
[16] = test system: A549/taxol cells
Protocol: as §3

[17] = XTT assay following 72 h inhibition, Table 1-3, read-out: IC50, C/Taxol
[18] = read-out: CCRF-CEM (IC50 (μM)), XTT assay following 72 h inhibition, Table 1-1
[19] = XTT assay following 72 h inhibition, Table 1-2, read-out: IC50 (μM), CCRF-CEM/Taxol
[20] = XTT assay following 72 h inhibition, Table 1-4, read-out: IC50, CCRF-CEM/Taxol
[21] = read-out: IC50, CCRF-CEM, XTT assay following 72 h inhibition, Table 1-4
[22] = 72 h, read-out: IC50, CCRF-CEM/Taxol

C/C(=C\c1csc(C)n1)[C@@H]1C/C=C(/C(F)(F)F)CCC[C@H](C)[C@H](O)[C@@H](C)C(=O)C(C)(C)[C@@H](O)CC(=O)O1 [Compound 2, 26-trifluoro-12,13-desoxyepothilone B]
solubility [1]: 0.008 mg/mL (≈ 14.7 µM) | IC50 [2, 17]: 0.018 µM | chromatographic logP [3]: 4.1 | half-life ([4]; plasma): 1.1 ± 0.117 h | Slower drug degradation in murine plasma as compared to dEpoB (1), factor [5]: by a factor of seven | IC50 ([6]; human): 0.0093 ± 0.0052 µM | IC50 ([6]; read-out: IC50, CCRF-CEM(C), XTT assay following 72 h inhibition, Table 1-3): 0.0041 µM | Maximal b.w. % drop without death ([7]; mouse, in vivo): 22% | Therapeutic dose regimen for Q2D 6 hr-iv infusion ([7]; mouse, in vivo, iv): 15 to 20 mg/kg | half-life ([8]; s9): 1.6 ± 0.4 h

CC1=C/C[C@@H](/C(C)=C/c2csc(C)n2)OC(=O)C[C@H](O)C(C)(C)C(=O)[C@H](C)[C@@H](O)[C@@H](C)C\C=C\1 [Compound 6, epothilone 490, reference compound]
IC50 ([6]; read-out: CCRF-CEM (IC50 (μM))): 0.02 µM

C/C(=C\c1csc(C)n1)[C@@H]1C/C=C(/C(F)(F)F)C/C=C/C[C@H](C)[C@H](O)[C@@H](C)C(=O)C(C)(C)[C@@H](O)CC(=O)O1 [Compound 19, 27-F3-[17]ddEpoB]
Degradation on exposure to human plasma [9]: remained mostly intact | Degradation on exposure to nude mouse plasma ([5]; preliminary metabolic degradation studies): remained mostly intact | IC50 [6, 18]: 0.068 µM

C/C1=C/C[C@@H](/C(C)=C/c2csc(C)n2)OC(=O)C[C@H](O)C(C)(C)C(=O)[C@H](C)[C@@H](O)[C@@H](C)/C=C/C1 [Compound 28, trans-9,10-dehydro-12,13-desoxyepothilone B]
Water solubility relative to other epothilones [1]: greatly increased water solubility | solubility [1]: 0.027 mg/mL (≈ 55.1 µM) | Enhancement of drug potency in xenograft experiments with MX-1 tumors [10]: ca. 10 fold | IC50 [2, 19]: 0.0017 µM | IC50 [2, 17]: 0.0012 µM | IC50 [2, 20]: 0.0012 µM | chromatographic logP [3]: 3.3 | IC50 [11]: 0.9 ± 0.4 nM | half-life ([4]; mouse plasma): 1.4 ± 0.1 h | IC50 in vitro (FIG. 94) [6]: sub-nanomolar | IC50 ([6]; XTT assay following 72 h inhibition, Table 1-2): 0.0014 µM | IC50 ([6]; XTT assay following 72 h inhibition, Table 1-3): 0.0009 µM | IC50 ([6]; XTT assay following 72 h inhibition, Table 1-4): 0.0009 µM | Potency in direct comparison with dEpoB (1) ([6]; tumor cell lines of Table 1-2): nearly three times more potency | Relative therapuetic index at MTD [7]: ++++ | Antitumor effect in human solid tumor xenograft models ([7]; mouse, in vivo): strongly suppressed tumor growth | Dose accomplishing complete suppression of tumor in a variety of xenografts ([7]; mouse, in vivo): 3 mg/kg | Efficacy compared with dEpoB ([7]; mouse, in vivo): three times more efficacious | Maximal b.w. % drop without death ([7]; mouse, in vivo): 29% | Therapeutic dose regimen for Q2D 6 hr-iv infusion ([7]; mouse, in vivo, iv): 3 to 4 mg/kg | Therapeutic effect on MX-1 xenograft ([12]; mouse, in vivo): tumor disappearance | half-life ([8]; pooled human liver S9 fraction): 4.9 ± 0.7 h

C/C(=C\c1csc(C)n1)[C@@H]1C[C@@H]2O[C@]2(C)C/C=C/[C@H](C)[C@H](O)[C@@H](C)C(=O)C(C)(C)[C@@H](O)CC(=O)O1 [Compound 49, (E)-9,10-dehydroepothilone B]
Mice died of toxicity within three days after the sixth dosage ([13]; 0.6 mg/kg, Q2Wx6, 6 hour infusion): four out of four | IC50 [2, 20]: 0.00042 µM | IC50 in vitro (FIG. 94) [6]: sub-nanomolar | IC50 [6, 21]: 0.00023 µM | Potency compared with EpoB (51) [6]: ~3 fold and 2-4 fold | Antitumor effect in human solid tumor xenograft models ([7]; mouse, in vivo): strongly suppressed tumor growth | Therapeutic effect on CCRF-CEM/Taxol xenograft ([14]; 0.6 mg/kg, Q3Dx5,x2): abolished tumor growth | Therapeutic effect on MX-1 xenograft ([12]; 0.4-0.6 mg/kg, every three days 9-11 times, 6 hour iv infusion): shrinkage and disappearance of the tumor | Therapeutic effect on MX-1 xenograft ([12]; every other day for 8 doses): tumor growth suppression but no shrinkage of the tumor | Body weight recovery, % of the control ([12]; every other day for 9 doses, second to eighth day): 76% to 82%

C/C(=C\c1csc(C)n1)[C@@H]1C[C@H]2O[C@@]2(C)C/C=C/[C@H](C)[C@H](O)[C@@H](C)C(=O)C(C)(C)[C@@H](O)CC(=O)O1 [Compound 50]
IC50 [2, 20]: 0.0802 µM | IC50 [6, 21]: 0.0134 µM | Potency compared with EpoB (51) [6]: much lower activity | Potency compared with EpoB (51) ([6]; listed as unnatural α-oxirane): virtually devoid of activity

C/C(=C\c1csc(C)n1)[C@@H]1C[C@@H]2O[C@]2(C)CCC[C@H](C)[C@H](O)[C@@H](C)C(=O)C(C)(C)[C@@H](O)CC(=O)O1 [Compound 51, Epothilone B, reference compound]
IC50 [2, 22]: 0.0011 µM | half-life ([4]; plasma): 0.95 h | IC50 in vitro (FIG. 94) [6]: sub-nanomolar | IC50 ([6]; read-out: Cytotoxic Efficacy IC50, CCRF-CEM leukemic cells, range of two experiments, seven concentration points): 0.00053 ± 0.0002 µM | IC50 [6, 21]: 0.00062 µM | Therapeutic dose regimen for Q2D 6 hr-iv infusion ([7]; Q2D 6 hr-iv infusion): 0.6 to 0.8 mg/kg | Relative therapuetic index at MTD [7]: +++ | Maximal b.w. % drop without death ([7]; nude mice): 15% | half-life ([8]; s9): 15.8 h

C/C(=C\c1csc(C)n1)[C@@H]1C[C@H]2O[C@@]2(C)CCC[C@H](C)[C@H](O)[C@@H](C)C(=O)C(C)(C)[C@@H](O)CC(=O)O1 [Compound 52]
IC50 [2, 22]: 0.151 µM | IC50 [6, 21]: 0.083 µM | Potency compared with EpoB (51) [6]: much lower activity

C/C1=C/C[C@@H](/C(C)=C/c2csc(CO)n2)OC(=O)C[C@H](O)C(C)(C)C(=O)[C@H](C)[C@@H](O)[C@@H](C)/C=C/C1 [Compound 57, 9,10-dehydro-dEpoF]
Water solubility relative to other epothilones [1]: greatly increased water solubility | IC50 [2, 19]: 0.00073 µM | Slower drug degradation in murine plasma as compared to dEpoB (1), factor [5]: ca. 7 | IC50 in vitro (FIG. 94) [6]: sub-nanomolar | IC50 ([6]; read-out: IC50 (μM), CCRF-CEM, XTT assay following 72 h inhibition, Table 1-2): 0.00051 µM | Antitumor effect in human solid tumor xenograft models ([7]; mouse, in vivo): strongly suppressed tumor growth

C/C(=C\c1csc(CO)n1)C1C/C=C(/C(F)(F)F)C/C=C/[C@H](C)[C@H](O)[C@@H](C)C(=O)C(C)(C)[C@@H](O)CC(=O)O1 (some centres unmarked) [Compound 59, 26-trifluoro-9,10-dehydro-dEpoF]
Water solubility relative to other epothilones [1]: greatly increased water solubility

CC(=O)O[C@H]1C(=O)[C@@]2(C)[C@H]([C@H](OC(=O)c3ccccc3)[C@]3(O)C[C@H](OC(=O)[C@H](O)[C@@H](NC(=O)c4ccccc4)c4ccccc4)C(C)=C1C3(C)C)[C@]1(OC(C)=O)CO[C@@H]1C[C@@H]2O [Paclitaxel, reference compound]
Tumor reappeared on day 10 after administration (mice) ([10]; 20 mg/kg): 2/7 | Tumor free after Q2Dx6 6 hr-iv. infusion (mice) ([10]; 20 mg/kg, 6 h): 7/7 | Mice relapsed on day 10 after suspension of treatment ([10]; 20 mg/kg, 240 h): 2/7 | Tumor relapse during follow-up to D200 ([13]; Fludelone 20 and 30 mg/kg, Taxol 20 mg/kg): tumor relapse occurred on D71, 75, 81 and 81; also recorded: relapses on D71, 75, 81, and 81 | Tumor disappearance (mice) ([13]; Q2Dx4, 6 hr-i.v. infusion for 3 cycles, F3-deH-dEpoB 20 and 30 mg/kg, Taxol 20 mg/kg): 4 out of 4 | Resistance of CCRF-CEM/Taxol subline [2]: 44 fold | Relapse, time after stopping treatment ([15]; 20 mg/kg): 1.1 months | Cell kill ([15]; 96 h): 2.56 log | Tumor suppression ([15]; 96 h): 99.7% | Resistance of A549/taxol cells [16]: 44 fold | Final tumor suppression on D34 ([14]; 20 mg/kg): 75.6% | Therapeutic effect on CCRF-CEM/Taxol xenograft ([14]; 20 mg/kg, 6 hr-i.v. infusion, listed as Taxol): only partial suppression of tumor growth and failed to achieve tumor shrinkage; also recorded: tumor growth suppression but with little or no tumor shrinkage | Effect of oral administration on MX-1 xenografts ([12]; oral): did not affect the tumor

[17]ddEpoB [Compound 23, reference compound]
IC50 [6, 18]: 0.04 µM
